Among the targets are Histamine H3 receptor (Homo sapiens, UniProt Q9Y5N1); Mu-type opioid receptor (Homo sapiens, UniProt P35372); D(1A) dopamine receptor (Homo sapiens, UniProt P21728).
For another assay, the target named is T1, Estrogen receptor (Homo sapiens, UniProt P03372).
T1 sequence (P03372 whole entry): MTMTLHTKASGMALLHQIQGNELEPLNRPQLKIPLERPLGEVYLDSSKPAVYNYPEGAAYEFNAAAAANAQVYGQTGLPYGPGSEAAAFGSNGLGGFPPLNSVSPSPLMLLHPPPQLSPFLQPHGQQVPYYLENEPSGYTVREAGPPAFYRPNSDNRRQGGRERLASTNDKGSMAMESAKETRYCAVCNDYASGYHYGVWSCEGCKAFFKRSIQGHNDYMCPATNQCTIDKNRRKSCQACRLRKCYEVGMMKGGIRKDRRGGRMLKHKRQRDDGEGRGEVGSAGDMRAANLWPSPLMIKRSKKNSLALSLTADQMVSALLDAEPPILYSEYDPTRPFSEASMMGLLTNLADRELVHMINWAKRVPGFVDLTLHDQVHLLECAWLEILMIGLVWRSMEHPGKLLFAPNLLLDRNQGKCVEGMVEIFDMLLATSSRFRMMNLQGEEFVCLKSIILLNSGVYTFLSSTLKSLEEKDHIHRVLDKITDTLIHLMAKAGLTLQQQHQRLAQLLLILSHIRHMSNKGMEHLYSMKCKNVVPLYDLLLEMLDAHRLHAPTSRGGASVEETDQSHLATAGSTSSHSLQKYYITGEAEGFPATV

Assay [1] concerns the target Prostaglandin G/H synthase 1 (Homo sapiens, UniProt P23219). It counts as functional.
Assay [2] addresses T2, Alpha-1A adrenergic receptor (Homo sapiens, UniProt P35348).
T2 sequence (P35348 whole entry): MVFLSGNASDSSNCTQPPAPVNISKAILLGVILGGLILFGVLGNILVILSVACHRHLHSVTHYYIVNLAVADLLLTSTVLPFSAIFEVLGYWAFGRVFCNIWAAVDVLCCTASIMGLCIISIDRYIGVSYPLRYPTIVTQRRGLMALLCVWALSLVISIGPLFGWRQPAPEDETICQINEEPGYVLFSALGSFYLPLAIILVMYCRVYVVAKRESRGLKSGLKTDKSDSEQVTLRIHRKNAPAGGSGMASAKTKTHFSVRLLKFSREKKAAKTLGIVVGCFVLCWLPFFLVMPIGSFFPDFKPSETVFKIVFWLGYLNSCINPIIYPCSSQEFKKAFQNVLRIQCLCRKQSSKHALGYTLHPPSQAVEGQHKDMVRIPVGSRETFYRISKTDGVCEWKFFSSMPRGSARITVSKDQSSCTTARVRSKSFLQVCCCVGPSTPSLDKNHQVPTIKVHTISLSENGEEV
It counts as functional, cell-based.

The next assay has as its target Acetylcholinesterase (Homo sapiens, UniProt P22303). It counts as functional.
Assay [3] concerns the target Sodium-dependent noradrenaline transporter (Homo sapiens, UniProt P23975).
Assay [4] has as its target Vascular endothelial growth factor receptor 2 (Homo sapiens, UniProt P35968). It counts as functional.
Assay [5] deals with T2, Alpha-1A adrenergic receptor. It counts as functional, cell-based. The source holds these as a separate data set.
In assay [6] the target is T3, 5-hydroxytryptamine receptor 1A (Homo sapiens, UniProt P08908).
T3 sequence (P08908 whole entry): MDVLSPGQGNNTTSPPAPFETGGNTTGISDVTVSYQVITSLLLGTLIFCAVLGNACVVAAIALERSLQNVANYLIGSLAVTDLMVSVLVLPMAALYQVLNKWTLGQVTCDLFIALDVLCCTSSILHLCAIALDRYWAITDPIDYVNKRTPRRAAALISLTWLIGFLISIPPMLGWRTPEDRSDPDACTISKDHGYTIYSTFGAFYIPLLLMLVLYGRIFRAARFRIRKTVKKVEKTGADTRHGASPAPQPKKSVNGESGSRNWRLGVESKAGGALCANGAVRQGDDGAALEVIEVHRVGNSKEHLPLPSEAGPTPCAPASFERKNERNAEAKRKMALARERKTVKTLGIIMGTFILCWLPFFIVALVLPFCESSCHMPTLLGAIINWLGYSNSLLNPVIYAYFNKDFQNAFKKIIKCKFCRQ

The target of another assay is T4, Thromboxane A2 receptor (Homo sapiens, UniProt P21731).
T4 sequence (P21731 whole entry): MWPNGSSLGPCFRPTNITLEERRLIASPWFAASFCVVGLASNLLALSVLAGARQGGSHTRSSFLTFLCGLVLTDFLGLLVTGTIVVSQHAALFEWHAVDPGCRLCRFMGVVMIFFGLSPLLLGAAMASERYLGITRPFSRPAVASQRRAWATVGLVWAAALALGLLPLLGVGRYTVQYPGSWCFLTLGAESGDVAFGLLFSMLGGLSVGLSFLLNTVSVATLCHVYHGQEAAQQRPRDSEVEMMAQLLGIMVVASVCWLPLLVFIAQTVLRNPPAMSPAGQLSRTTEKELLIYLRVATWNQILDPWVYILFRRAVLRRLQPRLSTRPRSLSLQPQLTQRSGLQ
It counts as functional, cell-based.

Assay [7] addresses Sodium-dependent dopamine transporter (Homo sapiens, UniProt Q01959).
The target of assay [8] is T5, Amine oxidase [flavin-containing] A (Homo sapiens, UniProt P21397).
T5 sequence (P21397 whole entry): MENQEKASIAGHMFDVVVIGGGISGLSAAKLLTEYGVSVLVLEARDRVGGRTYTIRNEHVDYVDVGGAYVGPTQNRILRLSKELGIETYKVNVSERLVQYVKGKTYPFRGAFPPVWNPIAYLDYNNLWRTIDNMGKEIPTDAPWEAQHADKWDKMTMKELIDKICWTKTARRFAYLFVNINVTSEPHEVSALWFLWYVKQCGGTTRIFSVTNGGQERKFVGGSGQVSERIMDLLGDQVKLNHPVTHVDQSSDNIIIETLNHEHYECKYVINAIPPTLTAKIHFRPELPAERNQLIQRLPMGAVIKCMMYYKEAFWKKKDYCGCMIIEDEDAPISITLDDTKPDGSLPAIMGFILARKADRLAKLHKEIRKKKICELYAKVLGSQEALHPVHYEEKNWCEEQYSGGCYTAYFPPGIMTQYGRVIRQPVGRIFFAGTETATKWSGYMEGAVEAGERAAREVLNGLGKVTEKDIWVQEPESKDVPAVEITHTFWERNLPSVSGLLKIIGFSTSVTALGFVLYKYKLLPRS
It counts as functional.
Further: assay procedure not described here.

Vascular endothelial growth factor receptor 2, sequence (P35968 whole entry): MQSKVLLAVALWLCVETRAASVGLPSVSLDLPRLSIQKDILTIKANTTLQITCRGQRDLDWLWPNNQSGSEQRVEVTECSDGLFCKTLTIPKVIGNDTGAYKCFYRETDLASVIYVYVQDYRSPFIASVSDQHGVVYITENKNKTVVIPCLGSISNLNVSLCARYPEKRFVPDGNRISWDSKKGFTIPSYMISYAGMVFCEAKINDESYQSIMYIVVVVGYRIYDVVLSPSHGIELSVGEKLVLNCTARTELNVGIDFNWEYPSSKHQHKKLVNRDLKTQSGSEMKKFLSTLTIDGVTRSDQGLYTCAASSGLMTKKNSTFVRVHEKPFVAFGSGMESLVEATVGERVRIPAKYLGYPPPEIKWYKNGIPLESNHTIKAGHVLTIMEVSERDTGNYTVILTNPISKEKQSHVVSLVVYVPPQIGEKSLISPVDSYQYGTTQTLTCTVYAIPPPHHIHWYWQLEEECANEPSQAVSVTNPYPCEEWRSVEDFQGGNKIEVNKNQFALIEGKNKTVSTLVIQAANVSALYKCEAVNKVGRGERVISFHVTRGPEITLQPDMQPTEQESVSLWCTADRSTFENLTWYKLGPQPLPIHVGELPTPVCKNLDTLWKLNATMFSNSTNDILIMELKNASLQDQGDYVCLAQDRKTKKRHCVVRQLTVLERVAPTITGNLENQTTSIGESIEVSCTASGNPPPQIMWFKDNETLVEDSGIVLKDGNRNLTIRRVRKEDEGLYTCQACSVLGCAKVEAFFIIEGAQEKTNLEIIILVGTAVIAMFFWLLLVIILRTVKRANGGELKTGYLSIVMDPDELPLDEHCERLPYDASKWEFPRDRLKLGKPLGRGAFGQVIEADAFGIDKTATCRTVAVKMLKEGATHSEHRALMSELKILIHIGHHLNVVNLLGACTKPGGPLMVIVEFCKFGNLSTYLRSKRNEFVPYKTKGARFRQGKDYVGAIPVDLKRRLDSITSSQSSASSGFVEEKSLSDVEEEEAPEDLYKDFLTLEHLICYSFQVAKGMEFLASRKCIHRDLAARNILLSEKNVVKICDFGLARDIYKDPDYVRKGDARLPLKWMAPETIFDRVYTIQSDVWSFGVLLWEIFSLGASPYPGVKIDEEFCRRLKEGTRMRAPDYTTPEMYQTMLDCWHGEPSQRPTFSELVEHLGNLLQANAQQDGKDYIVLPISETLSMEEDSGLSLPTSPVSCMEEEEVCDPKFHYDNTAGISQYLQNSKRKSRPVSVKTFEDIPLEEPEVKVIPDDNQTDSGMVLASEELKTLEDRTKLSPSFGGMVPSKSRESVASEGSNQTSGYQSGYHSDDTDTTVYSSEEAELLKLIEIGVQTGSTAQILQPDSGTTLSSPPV
D(1A) dopamine receptor, sequence (P21728 whole entry): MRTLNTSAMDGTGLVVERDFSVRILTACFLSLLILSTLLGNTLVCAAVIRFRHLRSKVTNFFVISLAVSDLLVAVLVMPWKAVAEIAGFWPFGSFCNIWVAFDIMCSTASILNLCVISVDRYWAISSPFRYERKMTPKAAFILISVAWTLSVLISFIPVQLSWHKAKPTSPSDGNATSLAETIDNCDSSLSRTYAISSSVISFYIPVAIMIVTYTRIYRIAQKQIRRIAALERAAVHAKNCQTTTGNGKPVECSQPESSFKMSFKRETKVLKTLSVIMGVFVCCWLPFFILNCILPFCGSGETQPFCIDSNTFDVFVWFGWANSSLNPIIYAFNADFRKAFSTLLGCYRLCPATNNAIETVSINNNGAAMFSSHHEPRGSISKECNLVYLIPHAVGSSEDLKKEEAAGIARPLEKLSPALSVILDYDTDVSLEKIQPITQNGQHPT
Sodium-dependent noradrenaline transporter, sequence (P23975 whole entry): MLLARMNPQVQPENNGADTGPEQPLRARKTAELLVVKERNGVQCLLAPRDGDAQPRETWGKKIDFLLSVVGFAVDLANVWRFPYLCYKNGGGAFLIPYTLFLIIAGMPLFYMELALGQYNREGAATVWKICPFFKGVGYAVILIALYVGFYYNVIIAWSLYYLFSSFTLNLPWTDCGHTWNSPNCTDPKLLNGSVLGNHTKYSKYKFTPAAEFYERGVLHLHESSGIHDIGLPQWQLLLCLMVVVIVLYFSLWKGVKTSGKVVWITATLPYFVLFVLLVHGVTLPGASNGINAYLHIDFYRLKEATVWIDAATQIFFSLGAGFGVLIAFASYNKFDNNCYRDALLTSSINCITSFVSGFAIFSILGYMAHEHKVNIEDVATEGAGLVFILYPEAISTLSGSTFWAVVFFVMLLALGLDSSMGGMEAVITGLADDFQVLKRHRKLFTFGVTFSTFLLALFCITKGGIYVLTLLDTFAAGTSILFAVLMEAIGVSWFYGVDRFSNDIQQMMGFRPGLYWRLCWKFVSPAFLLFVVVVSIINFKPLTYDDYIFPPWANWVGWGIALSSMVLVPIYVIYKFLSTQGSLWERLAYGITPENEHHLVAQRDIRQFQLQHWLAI
Acetylcholinesterase, sequence (P22303 whole entry): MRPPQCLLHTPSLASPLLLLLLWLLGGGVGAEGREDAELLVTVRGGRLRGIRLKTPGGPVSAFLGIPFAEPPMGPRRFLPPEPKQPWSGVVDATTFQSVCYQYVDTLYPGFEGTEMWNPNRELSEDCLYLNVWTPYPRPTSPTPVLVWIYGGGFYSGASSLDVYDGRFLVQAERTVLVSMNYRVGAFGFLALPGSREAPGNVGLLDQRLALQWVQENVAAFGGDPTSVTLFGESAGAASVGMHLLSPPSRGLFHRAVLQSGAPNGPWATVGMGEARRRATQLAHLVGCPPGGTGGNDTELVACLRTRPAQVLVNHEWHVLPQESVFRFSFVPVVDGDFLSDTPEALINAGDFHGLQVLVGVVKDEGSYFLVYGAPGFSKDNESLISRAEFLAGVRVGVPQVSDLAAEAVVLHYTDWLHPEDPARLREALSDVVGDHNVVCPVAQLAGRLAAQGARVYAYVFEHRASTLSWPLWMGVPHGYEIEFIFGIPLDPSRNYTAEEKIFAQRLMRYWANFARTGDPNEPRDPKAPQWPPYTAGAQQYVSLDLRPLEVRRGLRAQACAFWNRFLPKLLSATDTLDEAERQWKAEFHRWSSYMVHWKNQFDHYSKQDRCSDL
Mu-type opioid receptor, sequence (P35372 whole entry): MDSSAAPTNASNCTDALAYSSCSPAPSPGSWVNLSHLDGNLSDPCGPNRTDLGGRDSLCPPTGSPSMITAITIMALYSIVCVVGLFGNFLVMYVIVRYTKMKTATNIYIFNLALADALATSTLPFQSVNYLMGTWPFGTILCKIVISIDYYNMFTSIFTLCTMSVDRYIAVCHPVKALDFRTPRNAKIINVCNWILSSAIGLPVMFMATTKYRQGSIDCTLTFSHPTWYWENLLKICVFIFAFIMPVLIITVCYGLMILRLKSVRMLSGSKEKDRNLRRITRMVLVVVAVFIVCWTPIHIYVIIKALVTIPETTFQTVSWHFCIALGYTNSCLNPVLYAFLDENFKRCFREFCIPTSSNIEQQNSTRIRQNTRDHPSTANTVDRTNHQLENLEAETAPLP
Prostaglandin G/H synthase 1, sequence (P23219 whole entry): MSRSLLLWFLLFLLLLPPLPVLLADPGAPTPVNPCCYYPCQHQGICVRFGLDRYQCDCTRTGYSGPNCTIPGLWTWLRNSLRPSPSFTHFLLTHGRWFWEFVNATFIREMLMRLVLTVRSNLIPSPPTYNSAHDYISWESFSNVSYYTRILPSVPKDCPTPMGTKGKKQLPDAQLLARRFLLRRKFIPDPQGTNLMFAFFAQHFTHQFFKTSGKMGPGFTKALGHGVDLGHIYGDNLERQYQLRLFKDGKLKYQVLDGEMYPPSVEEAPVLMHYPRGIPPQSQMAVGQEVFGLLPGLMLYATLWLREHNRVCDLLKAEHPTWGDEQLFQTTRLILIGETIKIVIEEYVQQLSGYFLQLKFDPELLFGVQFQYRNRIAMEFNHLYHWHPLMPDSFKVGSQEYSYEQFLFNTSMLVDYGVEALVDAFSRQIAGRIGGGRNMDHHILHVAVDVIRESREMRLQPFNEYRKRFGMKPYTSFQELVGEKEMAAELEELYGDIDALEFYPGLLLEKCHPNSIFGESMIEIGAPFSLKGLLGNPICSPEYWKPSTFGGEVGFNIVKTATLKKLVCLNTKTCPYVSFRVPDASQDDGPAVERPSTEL
Sodium-dependent dopamine transporter, sequence (Q01959 whole entry): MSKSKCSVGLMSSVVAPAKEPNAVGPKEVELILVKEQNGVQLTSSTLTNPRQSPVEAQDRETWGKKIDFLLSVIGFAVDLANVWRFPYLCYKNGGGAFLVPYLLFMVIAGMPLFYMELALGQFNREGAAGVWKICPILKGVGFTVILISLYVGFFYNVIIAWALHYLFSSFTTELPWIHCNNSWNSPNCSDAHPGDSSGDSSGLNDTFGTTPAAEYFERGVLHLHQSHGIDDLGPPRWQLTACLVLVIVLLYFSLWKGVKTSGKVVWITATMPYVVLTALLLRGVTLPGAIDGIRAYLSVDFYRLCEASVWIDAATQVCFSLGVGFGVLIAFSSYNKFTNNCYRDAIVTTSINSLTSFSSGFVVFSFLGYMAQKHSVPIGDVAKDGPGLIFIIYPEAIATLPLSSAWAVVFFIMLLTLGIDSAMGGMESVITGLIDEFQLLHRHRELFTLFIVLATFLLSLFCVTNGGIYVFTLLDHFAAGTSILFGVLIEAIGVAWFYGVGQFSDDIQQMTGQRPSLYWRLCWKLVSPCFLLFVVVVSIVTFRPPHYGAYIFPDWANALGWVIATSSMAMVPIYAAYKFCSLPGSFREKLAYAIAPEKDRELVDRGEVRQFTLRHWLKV

Take `CCCCC(=O)O[C@H]1CC[C@H]2[C@@H]3CCc4cc(O)ccc4[C@H]3CC[C@]12C` [ESTRADIOL VALERATE]: the AC50 was 0.0822 µM at Estrogen receptor; > 30 µM on Histamine H3 receptor; > 30 µM at Mu-type opioid receptor; 7.05 µM in [1]; > 30 µM in assay [2]; > 30 µM at Acetylcholinesterase. Moreover, the AC50 (in [3]; in assay [4]; in assay [5]; in [6]; on Thromboxane A2 receptor; in assay [7]) was > 30 µM throughout. In addition, the AC50 (in assay [8]; at D(1A) dopamine receptor) was > 30 µM each time.
Take `NC(=O)N/N=C/c1ccc([N+](=O)[O-])o1` [NITROFURAZONE]: the AC50 (at Estrogen receptor; at Histamine H3 receptor; on Mu-type opioid receptor; in assay [1]; in [2]; at Acetylcholinesterase) was > 30 µM each time. The AC50 (in [3]; in assay [4]; in [5]; in assay [6]; at Thromboxane A2 receptor; in assay [7]) was > 30 µM throughout. The AC50 (in assay [8]; on D(1A) dopamine receptor) was > 30 µM each time.
`CC(C)N1CCOC(c2cccc(C(F)(F)F)c2)C1` (stereo unspecified) [OXAFLOZANE]: the half-maximal activity concentration (AC50) (on Estrogen receptor; at Histamine H3 receptor; on Mu-type opioid receptor; in [1]; in [2]; at Acetylcholinesterase) was > 30 µM throughout. The half-maximal activity concentration (AC50) is > 30 µM in [3]; > 30 µM in [4]; > 30 µM in assay [5]; 0.513 µM in [6]; > 30 µM on Thromboxane A2 receptor; > 30 µM in assay [7]. Also, the AC50 (in [8]; on D(1A) dopamine receptor) was > 30 µM each time.
For `CC(O)(CC(=O)O)CC(=O)O` [MEGLUTOL], the AC50 is > 30 µM on Estrogen receptor; > 30 µM at Histamine H3 receptor; > 30 µM at Mu-type opioid receptor; > 30 µM in assay [1]; 18 µM in [2]; > 30 µM on Acetylcholinesterase. Further, the concentration at half-maximal activity (AC50) (in [3]; in assay [4]; in assay [5]; in [6]; at Thromboxane A2 receptor; in assay [7]) was > 30 µM each time. Moreover, the AC50 (in [8]; at D(1A) dopamine receptor) was > 30 µM each time.
Turning to `COCC(=O)O[C@]1(CCN(C)CCCc2nc3ccccc3[nH]2)CCc2cc(F)ccc2[C@@H]1C(C)C` [MIBEFRADIL], the AC50 at Estrogen receptor was > 30 µM; at Histamine H3 receptor, > 30 µM; on Mu-type opioid receptor, 0.979 µM; in assay [1], > 30 µM; in assay [2], 1.58 µM; on Acetylcholinesterase, > 30 µM. The AC50 is 20.2 µM in assay [3]; > 30 µM in assay [4]; 25.9 µM in assay [5]; 0.746 µM in assay [6]; 21.9 µM at Thromboxane A2 receptor; 9.53 µM in assay [7]. For the same compound, the figures for the AC50 (in [8]; at D(1A) dopamine receptor) were > 30 µM and 10.1 µM, respectively.
Take `C[C@@H]1CN(c2c(F)c(N)c3c(=O)c(C(=O)O)cn(C4CC4)c3c2F)C[C@H](C)N1` [SPARFLOXACIN]: the AC50 (on Estrogen receptor; at Histamine H3 receptor; on Mu-type opioid receptor; in assay [1]; in [2]; at Acetylcholinesterase) was > 30 µM throughout. The AC50 (in assay [3]; in assay [4]; in assay [5]; in assay [6]; on Thromboxane A2 receptor; in assay [7]) was > 30 µM in each case. Further, the half-maximal activity concentration (AC50) (in [8]; at D(1A) dopamine receptor) was > 30 µM in each case.
As for `CC(C)Cc1ccc(C(C)C(=O)OCc2ccccn2)cc1` (stereo unspecified) [IBUPROFEN PICONOL], the AC50 (at Estrogen receptor; at Histamine H3 receptor; at Mu-type opioid receptor; in assay [1]; in assay [2]; at Acetylcholinesterase) was > 30 µM in each case. The AC50 in assay [3] was 22.1 µM; in assay [4], > 30 µM; in assay [5], > 30 µM; in assay [6] it was > 30 µM; on Thromboxane A2 receptor it was > 30 µM; in assay [7] it was > 30 µM. For the same compound, the AC50 (in assay [8]; at D(1A) dopamine receptor) was > 30 µM throughout.
With `CC1(C)S[C@@H]2[C@H](NC(=O)[C@H](NC(=O)c3cnc4cccnc4c3O)c3ccccc3)C(=O)N2[C@H]1C(=O)O` [APALCILLIN], the AC50 was > 30 µM at Estrogen receptor; > 30 µM on Histamine H3 receptor; > 30 µM on Mu-type opioid receptor; 17.6 µM in assay [1]; > 30 µM in assay [2]; > 30 µM at Acetylcholinesterase. Also, the AC50 (in assay [3]; in assay [4]; in assay [5]; in assay [6]; on Thromboxane A2 receptor; in assay [7]) was > 30 µM each time. Also, the AC50 (in assay [8]; on D(1A) dopamine receptor) was > 30 µM throughout.
Regarding `[H]/N=C(/N)NS(=O)(=O)c1ccc(N)cc1` [SULFAGUANIDINE], the AC50 (at Estrogen receptor; at Histamine H3 receptor; at Mu-type opioid receptor; in assay [1]; in assay [2]; at Acetylcholinesterase) was > 30 µM each time. In addition, the AC50 (in [3]; in [4]; in assay [5]; in [6]; at Thromboxane A2 receptor; in assay [7]) was > 30 µM throughout. Besides, the AC50 (in assay [8]; at D(1A) dopamine receptor) was > 30 µM throughout.
